Source: PubChem BioAssay (NCI)
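Dose response: 5 concentrations. Exposure: 48 h. Format: 96-well plates. Endpoint: linear interpolation; highest concentration if not reached. GI50 is the concentration that inhibits growth by half. TGI marks complete inhibition of growth.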

Columns and labels:
Test in all cases: inhibition of tumour cell growth, NCI panel, 48 h
SF-295 CNS = test system: SF-295 CNS
HOP-62 NSCLC = test system: HOP-62 NSCLC
SF-268 CNS = test system: SF-268 CNS
OVCAR-4 ovarian = test system: OVCAR-4 ovarian
A498 renal = test system: A498 renal
CCRF-CEM leukemia = test system: CCRF-CEM leukemia
MOLT-4 leukemia = test system: MOLT-4 leukemia
HS 578T breast = test system: HS 578T breast
SW-620 colon = test system: SW-620 colon
SNB-75 CNS = test system: SNB-75 CNS

SMILES | GI50 (SF-295 CNS) | TGI (SF-295 CNS) | GI50 (HOP-62 NSCLC) | TGI (HOP-62 NSCLC) | GI50 (SF-268 CNS) | TGI (SF-268 CNS) | GI50 (OVCAR-4 ovarian) | TGI (OVCAR-4 ovarian) | GI50 (A498 renal) | TGI (A498 renal) | GI50 (CCRF-CEM leukemia) | TGI (CCRF-CEM leukemia) | GI50 (MOLT-4 leukemia) | TGI (MOLT-4 leukemia) | GI50 (HS 578T breast) | TGI (HS 578T breast) | GI50 (SW-620 colon) | TGI (SW-620 colon) | GI50 (SNB-75 CNS) | TGI (SNB-75 CNS)
O=C(Cc1ccc(/C=C/C(=O)c2ncc[nH]2)cc1)Nc1ccc(Br)cc1 | 2.09 µM | 6.19 µM | 2.49 µM | 5.73 µM | 1.83 µM | > 16.7 µM | 3.42 µM | > 16.7 µM | 4.72 µM | 13.7 µM | 0.759 µM | > 16.7 µM | 4.02 µM | > 16.7 µM | 7.94 µM | > 16.7 µM | 0.873 µM | 4.49 µM | 2.37 µM | > 16.7 µM
CC(C)[C@@H](C(=O)O[C@@H]1/C=C/C(=O)O[C@@H](C)CCC/C=C/[C@@H]2C[C@H](O)C[C@H]21)[N+](C)(C)C | > 100 µM | > 100 µM | > 100 µM | > 100 µM | > 100 µM | > 100 µM | > 100 µM | > 100 µM | > 100 µM | > 100 µM | > 100 µM | > 100 µM | > 100 µM | > 100 µM | > 100 µM | > 100 µM | > 100 µM | > 100 µM | > 100 µM | > 100 µM
N#Cc1cc2cc3c4c(c2oc1=O)CCCN4CCC3 | – | > 100 µM | – | > 100 µM | – | > 100 µM | – | > 100 µM | – | > 100 µM | – | > 100 µM | – | > 100 µM | – | > 100 µM | – | > 100 µM | – | > 100 µM
Cn1c2ccccc2c2cc(-c3ccccc3)c3c(c21)C(=O)C=CC3=O | – | 62.4 µM | – | > 76 µM | – | 77.4 µM | – | 41.3 µM | – | 48.7 µM | – | > 48.5 µM | – | 21.8 µM | – | 61.7 µM | – | 33.4 µM | – | 67.1 µM
CC1OC(OC2C(OC3C[C@@]4(C)C(C[C@H](O)[C@H]5[C@H](C6(C)CCC(C(C)(C)O)O6)CCC54C)[C@]4(C)CC[C@@H](O)C(C)(C)C34)OC(CO)C(O)C2O)C(O)C(O)C1O (stereo not given in full) (tested in a mixture with another compound) | – | > 100 µM | – | > 100 µM | – | > 100 µM | – | > 100 µM | – | > 100 µM | – | > 100 µM | – | > 100 µM | – | > 100 µM | – | > 100 µM | – | > 100 µM
COc1ccc2nc(-c3ccccc3)cc(Nc3ccc(/C(C)=N/O)cc3)c2c1 | 2.21 µM | 5.23 µM | 2.14 µM | 5.06 µM | 3.39 µM | > 23 µM | 3.9 µM | > 100 µM | 2.03 µM | 4.98 µM | 3.48 µM | > 100 µM | 3.73 µM | > 100 µM | 2.24 µM | 5.31 µM | 2.72 µM | > 22.1 µM | 3.54 µM | > 100 µM
Clc1ccccc1-c1nc2ccccc2[nH]1 | 43.3 µM | > 100 µM | > 100 µM | > 100 µM | > 100 µM | > 100 µM | > 100 µM | > 100 µM | 59.2 µM | > 100 µM | > 100 µM | > 100 µM | > 100 µM | > 100 µM | > 100 µM | > 100 µM | > 100 µM | > 100 µM | > 100 µM | > 100 µM
O=C1OCC2=C1C(c1cccc(F)c1)c1cc3c(cc1N2CCO)OCCO3 (stereo not given) | 0.134 µM | > 50 µM | 0.31 µM | > 50 µM | 0.381 µM | > 50 µM | 1.97 µM | > 50 µM | 0.111 µM | 0.438 µM | 0.237 µM | > 50 µM | 0.301 µM | > 50 µM | 0.179 µM | 7.16 µM | 0.186 µM | > 50 µM | 0.113 µM | 0.38 µM
COC(=O)Nc1nc2c(OC)c(OC)c(OC)cc2[nH]1 | 27.9 µM | > 100 µM | 33.5 µM | > 100 µM | 59.2 µM | > 100 µM | 64.2 µM | > 100 µM | 25.5 µM | > 100 µM | 25.4 µM | > 100 µM | 67.2 µM | > 100 µM | 30 µM | > 92.3 µM | 5.8 µM | > 100 µM | 15.4 µM | > 92.6 µM
O=C1CC(c2ccccc2)Cc2nc3ccc(Cl)cc3cc21 (stereo not given) | 0.339 µM | 17.3 µM | 0.459 µM | > 100 µM | 6.04 µM | > 100 µM | 7.26 µM | > 100 µM | 0.0503 µM | 0.401 µM | 0.0395 µM | > 100 µM | 0.0644 µM | > 100 µM | 0.351 µM | > 100 µM | 0.323 µM | > 100 µM | 0.126 µM | 70.3 µM
